Laboratory results reported in US4873331A, “Noradamantyl-carboxylic acid piperazinoalkyl esters” (American Home Products Corporation, priority 1988, dated 1989).

How the values were obtained:
[1] = background statement, Barone et al., 1986; cited from earlier work
[2] = target: T1, 5-HT1A serotonin receptor subtype (Rattus norvegicus, UniProt P19327); test: Affinity for 5-HT1A receptor sites, displacement of 3H-8-OH DPAT (Hall et al.); format: binding; conditions: for inhibition at 1 µM: 1 μM test compound
T1 construct: from tissue
T1 sequence (P19327 1-422): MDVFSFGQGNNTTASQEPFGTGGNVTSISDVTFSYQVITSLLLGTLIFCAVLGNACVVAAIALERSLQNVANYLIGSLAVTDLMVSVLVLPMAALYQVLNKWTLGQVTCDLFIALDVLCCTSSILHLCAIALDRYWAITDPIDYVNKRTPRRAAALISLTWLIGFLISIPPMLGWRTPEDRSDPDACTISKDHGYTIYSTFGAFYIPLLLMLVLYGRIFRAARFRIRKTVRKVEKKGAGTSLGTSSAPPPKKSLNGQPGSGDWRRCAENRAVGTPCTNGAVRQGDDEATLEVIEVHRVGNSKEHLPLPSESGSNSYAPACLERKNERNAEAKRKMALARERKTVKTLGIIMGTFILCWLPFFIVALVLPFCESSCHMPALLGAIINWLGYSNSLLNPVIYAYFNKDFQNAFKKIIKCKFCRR
From the text: The serotoninergic properties of the compounds of this invention were established by the procedure of Hall et al., J. Neurochem.

M1 muscarinic receptor = target: T2, M1 muscarinic receptor (Rattus norvegicus, UniProt P08482); test: M1 muscarinic receptor binding, [3H] pirenzipine, rat hippocampus
T2 construct: from tissue; host or cells: rat hippocampus
T2 sequence (P08482 1-460): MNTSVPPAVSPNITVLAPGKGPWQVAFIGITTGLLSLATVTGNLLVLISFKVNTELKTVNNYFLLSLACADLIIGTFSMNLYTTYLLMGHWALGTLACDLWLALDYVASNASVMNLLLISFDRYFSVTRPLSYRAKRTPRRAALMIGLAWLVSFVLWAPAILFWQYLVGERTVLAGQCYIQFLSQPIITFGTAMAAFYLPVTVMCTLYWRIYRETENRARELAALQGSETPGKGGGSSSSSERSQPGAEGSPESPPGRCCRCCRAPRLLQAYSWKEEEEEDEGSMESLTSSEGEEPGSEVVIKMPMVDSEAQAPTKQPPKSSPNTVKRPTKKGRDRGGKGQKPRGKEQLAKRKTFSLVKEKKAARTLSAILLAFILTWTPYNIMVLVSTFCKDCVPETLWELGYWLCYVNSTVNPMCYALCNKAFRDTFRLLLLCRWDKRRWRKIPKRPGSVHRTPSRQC
Experimental: The M1 muscarinic receptor binding properties of the compounds of this invention were established as follows:
Homogenized rat hippocampus tissue is suspended in 0.32M aqueous sucrose solution and centrifuged (747×g for 10 minutes at 4° C.) and the supernatent liquid is decanted and recentrifuged (18,677×g for 20 minutes at 4° C.). The resulting pellet is resuspended in the original volume of 0.32M aqueous sucrose. The sample is then diluted 1:2 in 10 mM Na2 HPO4 /KH2 PO4 buffer (pH=7.4). A 100 μl sample of the buffered tissue suspension is incubated at 25° C. for 60 minutes in the dark with 10 μl of test compound or vehicle for control and [^3 H] pirenzipine (0.5 nM, 0.04 μCi) q.s. 1 milliliter with the buffer solution. Atropine sulfate (2 μM) is added to half the samples being processed. Binding is terminated by vacuum filtration onto Whatman GF/B filters which are washed three times with the buffer solution (3 ml/wash, 4° C.). […] Specific ]^3 H] PZ binding is defined as total binding minus binding in the presence of 2 μM atropine sulfate.

M2 muscarinic receptor = target: T3, M2 muscarinic receptor (Rattus norvegicus, UniProt P10980); test: M2 receptor binding, [3H] quinuclidinyl benzilate, rat cerebellum; conditions: [3H] quinuclidinyl benzilate 0.23 nM, 37° C., 60 minutes
T3 construct: Homogenized rat cerebellum tissue; from tissue; host or cells: rat cerebellum
T3 sequence (P10980 1-466): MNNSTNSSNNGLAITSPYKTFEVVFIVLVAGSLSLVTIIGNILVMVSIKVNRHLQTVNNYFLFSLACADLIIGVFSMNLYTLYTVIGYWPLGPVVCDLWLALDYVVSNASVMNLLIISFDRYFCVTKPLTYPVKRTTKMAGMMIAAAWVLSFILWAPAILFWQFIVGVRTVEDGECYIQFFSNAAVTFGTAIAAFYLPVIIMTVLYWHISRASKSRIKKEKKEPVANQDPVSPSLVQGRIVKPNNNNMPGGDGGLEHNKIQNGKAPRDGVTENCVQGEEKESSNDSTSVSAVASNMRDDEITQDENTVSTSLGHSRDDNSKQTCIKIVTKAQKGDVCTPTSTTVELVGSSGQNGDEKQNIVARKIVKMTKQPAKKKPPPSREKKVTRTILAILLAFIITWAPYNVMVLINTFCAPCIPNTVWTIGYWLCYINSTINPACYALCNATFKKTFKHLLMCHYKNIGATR

[3] = target: T4, limbic D2 (dopamine) receptor (Rattus norvegicus, UniProt P61169); test: Affinity for D2 receptor sites, inhibition of 3H-spiroperidol binding to limbic brain tissue; conditions: 1 μM test compound
T4 construct: from tissue; host or cells: limbic brain tissue
T4 sequence (P61169 whole entry): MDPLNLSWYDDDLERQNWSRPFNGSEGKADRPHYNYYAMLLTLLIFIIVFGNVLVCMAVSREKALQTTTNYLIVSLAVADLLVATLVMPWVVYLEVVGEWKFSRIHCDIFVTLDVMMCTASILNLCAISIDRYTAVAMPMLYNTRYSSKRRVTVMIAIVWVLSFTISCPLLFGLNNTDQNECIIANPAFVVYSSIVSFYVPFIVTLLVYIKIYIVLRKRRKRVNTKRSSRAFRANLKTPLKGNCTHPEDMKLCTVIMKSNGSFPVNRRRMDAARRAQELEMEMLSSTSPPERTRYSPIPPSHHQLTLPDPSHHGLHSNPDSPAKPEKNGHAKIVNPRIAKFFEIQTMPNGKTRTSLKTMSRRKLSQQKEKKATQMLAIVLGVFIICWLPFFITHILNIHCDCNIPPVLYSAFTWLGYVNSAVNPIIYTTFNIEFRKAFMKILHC

Row | SMILES | inhibition at 1 µM [2] | inhibition at 1 µM [3] | further results
1 | Cc1nc2sccn2c(=O)c1CCN1CCC(=C(c2ccc(F)cc2)c2ccc(F)cc2)CC1 [Ritanserin] |  |  | clinical efficacy as anxiolytic-antidepressant agents [1]: demonstrate clinical efficacy as anxiolytic-antidepressant agents
2 | O=C(OCCCN1CCN(c2ncccn2)CC1)C12CC3CC(CC1C3)C2 [Example 3, Hexahydro-2,5-methanopentalene-3a[1H]-carboxylic acid 3-[4-(2-pyrimidyl)-1-piperazinyl]propyl ester] |  |  | inhibition at 0.1 µM ([2]; 100 nM test compound): 12%; M2/M1 Ratio (M1 muscarinic receptor; IC50 M2 / IC50 M1): 81; IC50 (M1 muscarinic receptor; rat hippocampus, [3H] pirenzipine 0.5 nM, 25° C., 60 minutes): 0.85 µM; IC50 (M2 muscarinic receptor): 69 µM
3 | COc1ccccc1N1CCN(CCCOC(=O)C23CC4CC(CC2C4)C3)CC1 [Example 4, Hexahydro-2,5-methanopentalene-3a[1H]carboxylic acid 3-[4-(2-methoxyphenyl)-1-piperazinyl]propyl ester] | 96% | 100% | 
4 | COc1ccccc1N1CCN(CCOC(=O)C23CC4CC(CC2C4)C3)CC1 [Example 2, Hexahydro-2,5-methanopentalene-3a[1H]-carboxylic acid 2-[4-(2-methoxyphenyl)-1-piperazinyl]ethyl ester] | 95% | 100% | 
5 | O=C(OCCN1CCN(c2ncccn2)CC1)C12CC3CC(CC1C3)C2 [Example 1, Hexahydro-2,5-methanopentalene-3a[1H]-carboxylic acid 2-[4-(2-pyrimidyl)-1-piperazinyl]ethyl ester] | 93% | 47% | Ki ([2]; calculated from IC50 values): 0.023 µM
